Cell count and EC50 data for 34 compounds are collected here from PubChem BioAssay AID2124 (Sanford-Burnham Center for Chemical Genomics, 2009).

Structures are written as SMILES. Results filed as inconclusive are left out. Calls of active or inactive are those of the source. How the calls were made is not given here; tested in MIN6 cells.

A short description of assay [1]: GFP-wavelength compound autofluorescence in cells – imaging, high-content imaging, artefact control, dose response (AID 2124).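 On Cell count: cells exposed to compound for 48 hours before fixing.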 The following applies: cells, GFP-channel autofluorescence, high-content imaging; cell count; at 10 µM.
Assay [2] relates to cells, GFP-channel autofluorescence, high-content imaging. Described as above.

As to `O=C(/C=C/c1ccc(N2CCC(c3ccccc3)=N2)cc1)c1ccccc1`, the cell count in assay [1] is 2900 cells. In addition, the EC50 (commonly the concentration at which the effect is half-maximal) in assay [2] is 5.99 µM.
For `CC(=O)c1cc(NC(=O)c2ccc(Cl)cc2)c(=O)oc1/C=C/N(C)C` the same measures were 2840 cells and 9.14 µM.
For `COc1cc(N2CCCC2)c(OC)cc1/C=C(/C#N)c1cccc(F)c1` the same measures were 2910 cells and 6.47 µM.
On to `O=c1oc2c3c4c(cc2c(C(F)(F)F)c1CCN1CCOCC1)CCCN4CCC3`, for which the cell count in assay [1] worked out at 3400 cells. Further, the concentration for a half-maximal effect (EC50) in assay [2] was 8.25 µM.
For `O=[N+]([O-])c1ccc(N/N=C/c2ccc[nH]2)cc1` the same measures were 841 cells and 4.32 µM.
For `Nc1c(C(=O)c2ccccc2)sc2nsc(SCCN3CCCC3)c12` the same measures were 2210 cells and 7.98 µM.
For `CN1CC=C2C(C#N)=C(N)C(C#N)(C#N)C(c3cccc(Cl)c3Cl)C2C1` (stereo not drawn) the same measures were 3010 cells and 11.9 µM (inactive).
Take `Cc1nn(C)cc1N1C(=O)c2cccc3c(N)ccc(c23)C1=O`: the cell count in assay [1] turned out to be 2940 cells. In addition, in assay [2], the EC50 is > 16 µM (inactive).
`CC(=O)c1c(N2CCOCC2)[nH]c(-c2ccccc2)nc1=S`: in assay [1], the cell count was determined as 3510 cells. Moreover, the EC50 in assay [2] is 1.05 µM.
As for `CCCN1C(=O)/C(=C/c2c(NCCCOC(C)C)nc3c(C)cccn3c2=O)SC1=S`, the cell count in assay [1] is 2790 cells. The EC50 in assay [2] was > 16 µM (inactive).
For `CCCN1CCc2c(sc(NC(=S)NC(=O)c3ccccc3)c2C#N)C1`, in that order: 3200 cells and 13.3 µM (inactive).
For `CCOC(=O)CN1C(=O)S/C(=C/c2ccc(N3CCCCC3)o2)C1=O`, in that order: 3180 cells and 7.22 µM.
For `Cc1ccnc(N/C=C(\C#N)c2nc(-c3cccc(Br)c3)cs2)c1` the same measures were 2880 cells and 8.87 µM.
For `Cn1c(/C(C#N)=C/c2ccc(-c3ccc(S(N)(=O)=O)cc3)o2)nc2ccccc21`, the cell count in assay [1] turned out to be 2680 cells. For the same compound, the EC50 in assay [2] is 8.08 µM.
For `CCN(CC)c1ccc(/C=C/C(=O)c2ccc(Br)cc2)cc1` the same measures were 2880 cells and 3.67 µM.
`N#Cc1c(NC(=S)NC(=O)c2ccccc2)sc2c1CCN(CCc1ccccc1)C2` registered a cell count in assay [1] of 2330 cells. The EC50 in assay [2] is 5.79 µM.
As for `CCN(CC)c1ccc2cc(C(N)=O)/c(=N\NC(=O)c3ccncc3)oc2c1`, the cell count in assay [1] was found to be 3100 cells. Further, the concentration giving a half-maximal response (EC50) in assay [2] is 9.35 µM.
For `COc1ccc2c(c1)NC(c1ccc(N(C)C)cc1)c1cccn1-2` (stereo not drawn) the same measures were 2940 cells and 3.12 µM.
For `Cc1ccc(N2C(=O)C3C(C(=O)c4ccccc4)=NN(c4ccccc4)C3C2=O)cc1` (stereo not drawn), in that order: 2980 cells and > 16 µM (inactive).
For `O=C1c2cccc3c(N4CCCCC4)ccc(c23)C(=O)N1c1ccccc1O`, in that order: 3140 cells and 15.3 µM (inactive).
Turning to `CCCCOc1ccc(-c2cc(C(F)(F)F)c(C#N)c(SCC(=O)O)n2)cc1`, the cell count in assay [1] is 3060 cells. Besides, the EC50 in assay [2] was 12.3 µM (inactive).
Compound `COc1cc(OC)c(-c2c3cc(O)c(=O)cc-3oc3cc(O)c(O)cc23)cc1OC` had a cell count in assay [1] of 3000 cells. For the same compound, in assay [2], the EC50 is 13.5 µM (inactive).
For `CC(=O)Nc1cccc(C(=O)/C=C/c2ccc(N(C)C)cc2)c1` the same measures were 2940 cells and 12 µM (inactive).
For `CN1/C(=C\C=C(/C#N)C(=O)Nc2ccccc2F)C(C)(C)c2ccccc21`, in that order: 2910 cells and 6.93 µM.
As to `N#C/C(=C\c1ccc(N2CCOCC2)o1)c1ccccc1`, in assay [1], the cell count was 2130 cells. In addition, the EC50 in assay [2] was > 16 µM (inactive).
For `O=C1S/C(=C\c2ccc(N3CCOCC3)o2)C(=O)N1c1ccccc1` the same measures were 1060 cells and > 16 µM (inactive).
`CCN(CC)c1ccc(/C=C(/C#N)C(=O)NC(C)C)o1` showed a cell count in assay [1] of 3080 cells. Further, the EC50 in assay [2] is 14.2 µM (inactive).
`CC(=O)n1c(C=Nc2ccccc2)c(O)c2ccccc21`: the cell count in assay [1] was 3060 cells. Besides, the EC50 in assay [2] is 8.96 µM.
For `CN1CC=C2C(C#N)=C(N)C(C#N)(C#N)C(c3ccsc3)C2C1` (stereo not drawn), in that order: 2400 cells and > 16 µM (inactive).
For `CC(C)NC(=O)/C(C#N)=C/c1ccc(N(C)C)o1`, in that order: 3230 cells and 14.3 µM (inactive).
For `CCCN1C(=O)/C(=C\C=C2\N(CC)c3ccccc3C2(C)C)SC1=S` the same measures were 2900 cells and 7.93 µM.
The compound `CN1/C(=C\C=C2/SC(=S)NC2=O)C(C)(C)c2ccccc21` gave a cell count in assay [1] of 147 cells. Further, the EC50 in assay [2] was 6.13 µM.
For `COC(=O)c1cc2c(-c3ccccc3)c(C)c3ccccn3c-2c1C(=O)OC`, in that order: 2900 cells and 11.3 µM (inactive).
For `Cc1ccc(-c2cn3nc(-c4ccccc4)c(-c4ccccc4)nc3n2)cc1`, in that order: 3200 cells and 6.02 µM.
